This passage reports GI50 and DC50 results from patent US20240238424A1, “HETEROBIFUNCTIONAL COMPOUNDS AND METHODS OF TREATING DISEASE” (Halda Therapeutics OpCo, Inc., priority 2021, published 2024).

The test system of one experiment is 22RV1 cells. The experiment is described as follows: Cellular growth inhibition assay (CTG), 22RV1 cells. In kind it is cell-based. To be noted: Homo sapiens, CellTiter-Glo 2.0, day-5. As to the method: Cells were seeded in Poly-D-lysine-treated 384-well white plates, with 25 μL cell suspension at 250 cells/well for continuous treatments, and 1000 cells/well for washout treatments. Plates were spun at 300×g for 3 minutes, and cells were cultured at 37° C. with 5% CO2 in a humidified tissue culture incubator.
After 24 hours, the test compounds were diluted with cell culture medium in 96 deep well plates. DMSO was used as a negative control. A 25 μL aliquot of compound-containing medium was added in each well, at a final top concentration of 10 μM or 30 μM test compound, with 3-fold dilutions. For washout assays, after 4 hours, cell medium with compound was removed, and the cells were washed with 75p L fresh medium. Plates were then spun at 300×g for 3 minutes and replaced with 50 μL fresh medium in each well. Plates were then spun at 300×g for 3 minutes again and cultured at 37° C. with 5% CO2.
At day-0 and day-5 of compound treatments, cell viability was quantified with CellTiter-Glo 2.0 (Promega). After equilibrating cell plates at room temperature for 30 minutes, 25 μL CellTiter-Glo 2.0 reagent was dispensed into each well (on top of 50 μL of cell culture). Plates were mixed on a shaker for 2 minutes at 500 rpm, followed by a 10-minute incubation at room temperature. Luminescence readings were measured with an EnVision Plate Reader. Data was normalized to DMSO treated day-0 cell wells. A four-parameter non-linear regression curve fit was applied to dose-response data in Prism to determine the half maximal growth inhibitory concentration (GI50) of each compound.

For a further experiment, the target named is T1, GSPT1 (Homo sapiens, UniProt P15170+Q96SW2).
T1 construct: host or cells: HEK293 LgBiT cell line
T1 sequence (P15170 whole entry): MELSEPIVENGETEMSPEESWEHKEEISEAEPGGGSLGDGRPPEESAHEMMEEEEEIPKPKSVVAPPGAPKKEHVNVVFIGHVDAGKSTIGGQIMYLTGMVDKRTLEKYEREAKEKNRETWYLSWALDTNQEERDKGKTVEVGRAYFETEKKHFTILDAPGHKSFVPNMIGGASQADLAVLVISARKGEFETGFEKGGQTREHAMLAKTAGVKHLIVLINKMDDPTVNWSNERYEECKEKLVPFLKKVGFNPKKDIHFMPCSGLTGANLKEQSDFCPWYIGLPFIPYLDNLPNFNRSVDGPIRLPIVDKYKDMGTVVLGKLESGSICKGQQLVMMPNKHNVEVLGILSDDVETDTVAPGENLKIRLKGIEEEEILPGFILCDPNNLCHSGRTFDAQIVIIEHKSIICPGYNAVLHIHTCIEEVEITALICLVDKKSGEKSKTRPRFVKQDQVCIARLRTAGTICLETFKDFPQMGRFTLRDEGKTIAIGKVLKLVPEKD
T1 sequence (Q96SW2 whole entry): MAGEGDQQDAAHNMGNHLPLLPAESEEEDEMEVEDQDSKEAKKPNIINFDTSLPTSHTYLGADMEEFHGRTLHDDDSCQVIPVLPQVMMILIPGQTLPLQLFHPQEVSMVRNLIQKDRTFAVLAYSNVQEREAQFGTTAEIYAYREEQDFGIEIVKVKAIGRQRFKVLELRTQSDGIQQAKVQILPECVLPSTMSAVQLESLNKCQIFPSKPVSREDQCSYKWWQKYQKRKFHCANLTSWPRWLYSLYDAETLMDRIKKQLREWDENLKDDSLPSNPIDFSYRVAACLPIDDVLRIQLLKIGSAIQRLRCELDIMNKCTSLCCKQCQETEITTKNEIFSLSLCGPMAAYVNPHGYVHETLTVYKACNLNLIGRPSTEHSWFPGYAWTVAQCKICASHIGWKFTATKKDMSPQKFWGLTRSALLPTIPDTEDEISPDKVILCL
T1 sequence (Q16531 whole entry partner): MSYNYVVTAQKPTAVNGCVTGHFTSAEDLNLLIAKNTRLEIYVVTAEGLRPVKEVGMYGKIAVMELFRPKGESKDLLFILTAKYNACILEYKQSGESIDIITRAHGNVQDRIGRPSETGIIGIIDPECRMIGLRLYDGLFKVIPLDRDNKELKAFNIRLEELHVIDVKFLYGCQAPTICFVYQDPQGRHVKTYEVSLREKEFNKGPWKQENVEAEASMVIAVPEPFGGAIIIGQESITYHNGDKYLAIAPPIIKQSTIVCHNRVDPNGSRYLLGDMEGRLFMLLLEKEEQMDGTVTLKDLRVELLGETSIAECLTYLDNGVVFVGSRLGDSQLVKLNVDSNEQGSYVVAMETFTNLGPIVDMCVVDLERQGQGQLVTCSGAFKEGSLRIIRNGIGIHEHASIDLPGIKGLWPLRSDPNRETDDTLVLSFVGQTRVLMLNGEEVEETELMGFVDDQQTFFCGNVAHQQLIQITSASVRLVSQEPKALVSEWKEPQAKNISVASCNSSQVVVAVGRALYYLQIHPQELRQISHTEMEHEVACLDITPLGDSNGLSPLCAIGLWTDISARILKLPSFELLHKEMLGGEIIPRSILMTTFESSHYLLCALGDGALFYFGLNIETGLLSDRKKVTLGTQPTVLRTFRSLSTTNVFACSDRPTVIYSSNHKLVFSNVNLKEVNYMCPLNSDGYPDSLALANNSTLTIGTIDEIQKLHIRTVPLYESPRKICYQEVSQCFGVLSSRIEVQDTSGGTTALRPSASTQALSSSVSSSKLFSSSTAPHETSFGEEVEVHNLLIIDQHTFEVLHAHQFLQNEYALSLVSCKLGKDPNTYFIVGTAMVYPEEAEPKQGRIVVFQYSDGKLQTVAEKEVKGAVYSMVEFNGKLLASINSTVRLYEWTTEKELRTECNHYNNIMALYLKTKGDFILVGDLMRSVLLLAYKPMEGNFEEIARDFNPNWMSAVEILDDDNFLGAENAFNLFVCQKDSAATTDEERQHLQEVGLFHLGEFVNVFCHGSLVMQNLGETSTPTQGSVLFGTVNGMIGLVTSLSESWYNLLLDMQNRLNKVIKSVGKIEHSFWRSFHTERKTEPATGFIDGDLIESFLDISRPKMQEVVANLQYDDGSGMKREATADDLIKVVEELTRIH
The experiment is described as follows: GSPT1 HiBit degradation assay. It is filed as cell-based. Conditions: Table 3; HEK293 LgBiT cells expressing GSPT1_HiBiT, luminescence after 6 hours. Summed up: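 HEK293 cells stably expressing LgBiT and GSPT1-HiBiT, seeded 18-24 h before dosing, were treated with titrated compound plus endurazine (0.5× final) at 37 °C. Luminescence loss after 6 h reflects GSPT1 degradation; DC50 is the concentration giving 50% degradation.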

In the case of `CC1(C)[C@H](NC(=O)c2ccc(OCCOCCOCCOCCOCCOCCOCCOCCOCCOCCOCCOc3cc(Cl)cc(NC(=O)NCc4ccc5c(c4)CN(C4CCC(=O)NC4=O)C5=O)c3)cc2)C(C)(C)[C@H]1Oc1ccc(C#N)c(Cl)c1` (some centres unmarked) [Compound I-21, N-[3-(3-chloro-4-cyano-phenoxy)-2,2,4,4-tetramethyl-cyclobutyl]-4-[2-[2-[2-[2-[2-[2-[2-[2-[2-[2-[2-[3-chloro-5-[[2-(2,6-dioxo-3-piperidyl)-1-oxo-isoindolin-5-yl]methylcarbamoylamino]phenoxy]ethoxy]ethoxy]ethoxy]ethoxy]ethoxy]ethoxy]ethoxy]ethoxy]ethoxy]ethoxy]ethoxy]benzamide], the GI50 in the experiment with 22RV1 cells fell in the range of 100 to 1000 nM. On GSPT1, the DC50 was in the range of 250 to 5000 nM.

`CC1(C)[C@H](NC(=O)c2ccc(OCCOCCOCCOCCOCCOCCOCCOCCOCCOc3cc(Cl)cc(NC(=O)NCc4ccc5c(c4)CN(C4CCC(=O)NC4=O)C5=O)c3)cc2)C(C)(C)[C@H]1Oc1ccc(C#N)c(Cl)c1` (some centres unmarked) [Compound I-20, N-[3-(3-chloro-4-cyano-phenoxy)-2,2,4,4-tetramethyl-cyclobutyl]-4-[2-[2-[2-[2-[2-[2-[2-[2-[2-[3-chloro-5-[[2-(2,6-dioxo-3-piperidyl)-1-oxo-isoindolin-5-yl]methylcarbamoylamino]phenoxy]ethoxy]ethoxy]ethoxy]ethoxy]ethoxy]ethoxy]ethoxy]ethoxy]ethoxy]benzamide] came in with a GI50 in the experiment with 22RV1 cells of less than 100 nM. Further, the DC50 at GSPT1 is 250 to 5000 nM.

Turning to `CC1(C)[C@H](NC(=O)c2ccc(OCCOCCOCCOCCOCCOCCOCCc3cc(Cl)cc(NC(=O)NCc4ccc5c(c4)CN(C4CCC(=O)NC4=O)C5=O)c3)cc2)C(C)(C)[C@H]1Oc1ccc(C#N)c(Cl)c1` (some centres unmarked) [Compound I-22, N-((1r,3r)-3-(3-chloro-4-cyanophenoxy)-2,2,4,4-tetramethylcyclobutyl)-4-((20-(3-chloro-5-(3-((2-(2,6-dioxopiperidin-3-yl)-1-oxoisoindolin-5-yl)methyl)ureido)phenyl)-3,6,9,12,15,18-hexaoxaicosyl)oxy)benzamide], the GI50 in the experiment on 22RV1 cells was less than 100 nM. The compound further returned a DC50 at GSPT1 of less than 250 nM.

As to `CC1(C)[C@H](NC(=O)c2ccc(OCCOCCOCCOCCOCCOCCOCCOc3cc(Cl)cc(NC(=O)NCc4ccc5c(c4)CN(C4CCC(=O)NC4=O)C5=O)c3)cc2)C(C)(C)[C@H]1Oc1ccc(C#N)c(Cl)c1` (some centres unmarked) [Compound I-19, N-((1r,3r)-3-(3-chloro-4-cyanophenoxy)-2,2,4,4-tetramethylcyclobutyl)-4-((20-(3-chloro-5-(3-((2-(2,6-dioxopiperidin-3-yl)-1-oxoisoindolin-5-yl)methyl)ureido)phenoxy)-3,6,9,12,15,18-hexaoxaicosyl)oxy)benzamide], in the experiment with 22RV1 cells, the GI50 was less than 100 nM. Also, on GSPT1, the DC50 was 250 to 5000 nM.
